Reference: PubChem BioAssay (NCI)
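Grown in 96-well plates, cells were treated for 48 hours with each compound at five concentrations. Insufficient inhibition: endpoint recorded as highest concentration tested. TGI: concentration producing complete growth inhibition.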

What was measured:
Test in all cases: DTP human tumour cell line panel, 48 h
[1] = test system: 786-0 renal
[2] = test system: A498 renal
[3] = test system: A549 NSCLC
[4] = test system: ACHN renal
[5] = test system: BT-549 breast
[6] = test system: CAKI-1 renal
[7] = test system: CCRF-CEM leukemia
[8] = test system: COLO 205 colon
[9] = test system: DU-145 prostate
[10] = test system: EKVX NSCLC
[11] = test system: HCC-2998 colon
[12] = test system: HCT-116 colon
[13] = test system: HCT-15 colon
[14] = test system: HOP-62 NSCLC
[15] = test system: HOP-92 NSCLC
[16] = test system: HS 578T breast
[17] = test system: HT29 colon
[18] = test system: IGROV1 ovarian
[19] = test system: K-562 leukemia
[20] = test system: KM12 colon
[21] = test system: M14 melanoma
[22] = test system: MALME-3M melanoma
[23] = test system: MCF7 breast
[24] = test system: MDA-MB-231 breast
[25] = test system: MDA-MB-435
[26] = test system: MDA-N
[27] = test system: MOLT-4 leukemia
[28] = test system: NCI-H23 lung
[29] = test system: NCI-H460 lung
[30] = test system: NCI-H522 lung
[31] = test system: NCI/ADR-RES ovarian
[32] = test system: OVCAR-3 ovarian
[33] = test system: OVCAR-4 ovarian
[34] = test system: OVCAR-5 ovarian
[35] = test system: OVCAR-8 ovarian
[36] = test system: PC-3 prostate
[37] = test system: RPMI-8226 leukemia
[38] = test system: RXF 393 renal
[39] = test system: SF-295 CNS
[40] = test system: SK-MEL-2 melanoma
[41] = test system: SK-MEL-28 melanoma
[42] = test system: SK-MEL-5 melanoma
[43] = test system: SK-OV-3 ovarian
[44] = test system: SNB-19 CNS
[45] = test system: SNB-75 CNS
[46] = test system: SW-620 colon
[47] = test system: T-47D breast
[48] = test system: U251 CNS
[49] = test system: UACC-257 melanoma
[50] = test system: UACC-62 melanoma
[51] = test system: UO-31 renal
[52] = test system: HL-60(TB) leukemia
[53] = test system: LOX IMVI melanoma
[54] = test system: NCI-H226 lung
[55] = test system: SF-268 CNS
[56] = test system: SF-539 CNS
[57] = test system: SN12C renal
[58] = test system: TK-10 renal

COC1OC(Cn2c(C)nc(Br)c2Br)C(O)C(O)C1O (stereo unspecified)
TGI [1]: > 100 µM | TGI [2]: > 100 µM | TGI [3]: > 100 µM | TGI [4]: > 100 µM | TGI [5]: > 100 µM | TGI [6]: > 100 µM | TGI [7]: > 100 µM | TGI [8]: > 100 µM | TGI [9]: > 100 µM | TGI [10]: > 100 µM | TGI [11]: > 100 µM | TGI [12]: > 100 µM | TGI [13]: > 100 µM | TGI [14]: > 100 µM | TGI [15]: > 100 µM | TGI [16]: > 100 µM | TGI [17]: > 100 µM | TGI [18]: > 100 µM | TGI [19]: > 100 µM | TGI [20]: > 100 µM | TGI [21]: > 100 µM | TGI [22]: > 100 µM | TGI [23]: > 100 µM | TGI [24]: > 100 µM | TGI [25]: > 100 µM | TGI [26]: > 100 µM | TGI [27]: > 100 µM | TGI [28]: > 100 µM | TGI [29]: > 100 µM | TGI [30]: > 100 µM | TGI [31]: > 100 µM | TGI [32]: > 100 µM | TGI [33]: > 100 µM | TGI [34]: > 100 µM | TGI [35]: > 100 µM | TGI [36]: > 100 µM | TGI [37]: > 100 µM | TGI [38]: > 100 µM | TGI [39]: > 100 µM | TGI [40]: > 100 µM | TGI [41]: > 100 µM | TGI [42]: > 100 µM | TGI [43]: > 100 µM | TGI [44]: > 100 µM | TGI [45]: > 100 µM | TGI [46]: > 100 µM | TGI [47]: > 100 µM | TGI [48]: > 100 µM | TGI [49]: > 100 µM | TGI [50]: > 100 µM | TGI [51]: > 100 µM

CC(=O)O[C@H](C[C@@H](C)[C@H]1C(=O)[C@H](O)[C@@]2(C)C3CC[C@H]4C(C)(C)[C@@H](OC5OCC(O)C(O)C5O)CC[C@@]45C[C@@]35CC[C@]12C)[C@@H]1OC1(C)C (stereo partly specified)
TGI [1]: 30.2 µM | TGI [2]: 29.3 µM | TGI [3]: > 100 µM | TGI [4]: 29.4 µM | TGI [5]: 51.4 µM | TGI [6]: 33.3 µM | TGI [7]: > 100 µM | TGI [8]: 61.3 µM | TGI [9]: 37.7 µM | TGI [10]: 44.3 µM | TGI [11]: 29.8 µM | TGI [12]: 38 µM | TGI [13]: 55.4 µM | TGI [52]: 22.6 µM | TGI [14]: 31.1 µM | TGI [15]: 30.6 µM | TGI [16]: > 100 µM | TGI [17]: > 100 µM | TGI [18]: 29.7 µM | TGI [19]: 15.3 µM | TGI [20]: 53.8 µM | TGI [53]: > 100 µM | TGI [21]: 94.5 µM | TGI [22]: 32.4 µM | TGI [23]: 34.8 µM | TGI [24]: 34.7 µM | TGI [25]: 36.2 µM | TGI [26]: 40.2 µM | TGI [54]: 33.2 µM | TGI [28]: 55.4 µM | TGI [29]: 30.6 µM | TGI [30]: 33.8 µM | TGI [31]: > 100 µM | TGI [32]: 7.18 µM | TGI [33]: 64.5 µM | TGI [34]: 32 µM | TGI [35]: 41.3 µM | TGI [36]: 30.4 µM | TGI [37]: 26.4 µM | TGI [38]: 34.1 µM | TGI [55]: 46.7 µM | TGI [39]: 33.6 µM | TGI [56]: 29.8 µM | TGI [40]: 29.5 µM | TGI [41]: 44.7 µM | TGI [42]: 29.7 µM | TGI [43]: 26.4 µM | TGI [57]: 35.7 µM | TGI [44]: 65.4 µM | TGI [45]: 26.1 µM | TGI [46]: > 100 µM | TGI [47]: 63.6 µM | TGI [58]: 29.8 µM | TGI [48]: 29.9 µM | TGI [49]: 34.8 µM | TGI [50]: 27 µM | TGI [51]: 54.7 µM

CCCCCCCCCCCCCCCCCCNc1nc(=O)n(C2CC(O)C(COP(=O)(O)OCC(COP(=O)(O)OC3C(CO)OC(n4ccc(N)nc4=O)C3O)OCCCCCCCCCCCCCCCCCC)O2)cc1F (stereo unspecified)
TGI [1]: 33.3 µM | TGI [2]: > 100 µM | TGI [3]: > 100 µM | TGI [4]: > 100 µM | TGI [5]: > 100 µM | TGI [6]: > 100 µM | TGI [7]: > 100 µM | TGI [8]: 37.7 µM | TGI [9]: > 100 µM | TGI [10]: > 100 µM | TGI [11]: > 100 µM | TGI [12]: > 100 µM | TGI [13]: > 100 µM | TGI [52]: > 100 µM | TGI [14]: > 100 µM | TGI [15]: > 100 µM | TGI [16]: > 100 µM | TGI [17]: > 100 µM | TGI [18]: > 100 µM | TGI [19]: > 100 µM | TGI [20]: > 100 µM | TGI [53]: 42.5 µM | TGI [21]: > 100 µM | TGI [22]: > 100 µM | TGI [23]: > 100 µM | TGI [24]: > 100 µM | TGI [25]: > 100 µM | TGI [26]: > 100 µM | TGI [27]: > 100 µM | TGI [54]: > 100 µM | TGI [28]: > 100 µM | TGI [29]: 30.9 µM | TGI [30]: > 100 µM | TGI [31]: > 100 µM | TGI [32]: > 100 µM | TGI [33]: > 100 µM | TGI [34]: > 100 µM | TGI [35]: > 100 µM | TGI [36]: 35.4 µM | TGI [37]: 74.2 µM | TGI [38]: 40.8 µM | TGI [55]: > 100 µM | TGI [39]: > 100 µM | TGI [56]: > 100 µM | TGI [40]: > 100 µM | TGI [41]: > 100 µM | TGI [42]: > 100 µM | TGI [43]: > 100 µM | TGI [57]: > 100 µM | TGI [44]: 56.5 µM | TGI [45]: > 100 µM | TGI [46]: > 100 µM | TGI [47]: > 100 µM | TGI [58]: > 100 µM | TGI [48]: 34.6 µM | TGI [49]: > 100 µM | TGI [50]: > 100 µM | TGI [51]: > 100 µM
